# Columns and labels:
# [1] = Inhibition of recombinant full length RSK2 (unknown origin) using biotin-AGAGRSRHSSYPAGT-OH as substrate after 150 mins
# [2] = Inhibition of RSK2 in mouse BAF cells assessed as YB1 phosphorylation at Ser102 by electrochemiluminescence assay
SMILES,IC50 [1] [nM],IC50 [2] [nM]
COc1cc(Nc2nc3cccc(-c4ccccc4F)c3o2)cc(OC)c1OC,220,18000
CCOc1cccc(F)c1-c1cccc2nc(Nc3cc(OC)c(OC)c(OC)c3)oc12,490,10800
COc1cc(C)ccc1-c1cccc2nc(Nc3cc(OC)c(OC)c(OC)c3)oc12,40,9700
COc1cc(Nc2nc3cccc(-c4ccccc4-c4cn[nH]c4)c3o2)cc(OC)c1OC,9300,> 20000
COc1cccc(F)c1-c1cccc2nc(NC3CCOCC3)oc12,3200,> 20000
COc1cc(Nc2nc3cccc(-c4c(F)cccc4OC(C)C)c3o2)cc(OC)c1OC,970,> 20000
COc1ccccc1-c1cccc2nc(Nc3cc(OC)c(OC)c(OC)c3)oc12,20,5700
COc1ccc(C)cc1-c1cccc2nc(Nc3cc(OC)c(OC)c(OC)c3)oc12,1100,14500
COc1cc(Nc2nc3cccc(-c4c(OC)cccc4OC)c3o2)cc(OC)c1OC,1200,> 20000
COc1cc(Nc2nc3cccc(-c4cccc5[nH]cnc45)c3o2)cc(OC)c1OC,4,800
COc1cc(Nc2nc3cccc(-c4nc(C)[nH]c4C)c3o2)cc(OC)c1OC,560,19800
COc1cc(Nc2nc3cccc(-c4cccc5cn[nH]c45)c3o2)cc(OC)c1OC,50,5700
COc1ccc(F)cc1-c1cccc2nc(Nc3cc(OC)c(OC)c(OC)c3)oc12,40,3700
COc1cccc(F)c1-c1cccc2nc(N)oc12,2800,> 20000
COc1cc(Nc2nc3cccc(-c4ccccc4OC(F)(F)F)c3o2)cc(OC)c1OC,4000,> 20000
COc1ccc(Nc2nc3cccc(-c4c(F)cccc4OC)c3o2)cc1O[C@H]1CCNC1,10,6300
COc1cccc(F)c1-c1cccc2nc(NC3CCCCC3)oc12,620,> 20000

# Next, values leading:
IC50 [1] [nM],IC50 [2] [nM],SMILES
620,> 20000,COc1cccc(Nc2nc3cccc(-c4c(F)cccc4OC)c3o2)n1
730,> 20000,CCOc1cccc(Nc2nc3cccc(-c4c(F)cccc4OC)c3o2)c1
70,6500,COc1ccc(Nc2nc3cccc(-c4c(F)cccc4OC)c3o2)cc1OC
220,> 20000,COc1ccc(Nc2nc3cccc(-c4c(F)cccc4OC)c3o2)cc1N
210,17200,COc1cc(Nc2nc3cccc(-c4c(F)cccc4OC)c3o2)cc(OC)c1
410,15400,COc1cccc(Nc2nc3cccc(-c4c(F)cccc4OC)c3o2)c1
340,> 20000,COc1cccc(F)c1-c1cccc2nc(Nc3cccc(S(N)(=O)=O)c3)oc12
1000,> 20000,COc1cccc(F)c1-c1cccc2nc(Nc3ccccc3)oc12
1400,> 20000,COc1ccc(Nc2nc3cccc(-c4c(F)cccc4OC)c3o2)cc1

# Source: BindingDB's records for doi:10.1016/j.bmcl.2014.01.058 (Novartis Institutes For Biomedical Research, 2014)
